Laboratory results as given in PubChem BioAssay AID248 (DTP/NCI, 2004).
Where “and” joins values, the source holds several entries; their conditions need not be identical. Equal values may be shown once. Inconclusive results and toxic doses are left out. Rule as the data show it: active = T/C of 150% or more; inactive = T/C below 125%.

System: L1210 leukemia ip in BDF1 mice, survival T/C
Assay: NCI In Vivo Anticancer Drug Screen. Data for tumor model L1210 Leukemia (intraperitoneal) in B6D2F1 (BDF1) mice
Settings: endpoint: mean survival time, higher = longer survival
Outline: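 Transplanted-tumor mice were given test agent; controls received vehicle only. Survival readings from the two groups were divided (treated over control).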

[1] = dose: 200.0 mg/kg/injection, schedule: Q01DX009 (ip), vehicle: saline with Tween-80
[2] = dose: 400.0 mg/kg/injection, schedule: Q01DX009 (ip), vehicle: saline with Tween-80
[3] = dose: 200.0 mg/kg/injection, schedule: Q01DX009 (ip), vehicle: Klucel (hydroxypropylcellulose) (HPC)
[4] = dose: 100.0 mg/kg/injection, schedule: Q04DX003 (ip), vehicle: Klucel (hydroxypropylcellulose) (HPC)
[5] = dose: 200.0 mg/kg/injection, schedule: Q04DX003 (ip), vehicle: Klucel (hydroxypropylcellulose) (HPC)
[6] = dose: 400.0 mg/kg/injection, schedule: Q04DX003 (ip), vehicle: Klucel (hydroxypropylcellulose) (HPC)

Measured: T/C

O=C(O)CCN(CCC(=O)O)CCC(=O)O
inactive: dose: 44.0 mg/kg/injection, schedule: Q01DX009 (ip), vehicle: alkali diluted with saline 97 % of control | dose: 66.0 mg/kg/injection, schedule: Q01DX009 (ip), vehicle: saline 96 % of control | dose: 67.0 mg/kg/injection, schedule: Q01DX009 (ip), vehicle: alkali diluted with saline 98 % of control | dose: 100.0 mg/kg/injection, schedule: Q01DX009 (ip), vehicle: alkali diluted with saline 101 % of control | dose: 100.0 mg/kg/injection, schedule: Q01DX009 (ip), vehicle: saline 94 % of control | dose: 100.0 mg/kg/injection, schedule: Q04DX003 (ip), vehicle: alkali diluted with saline 100 % of control | dose: 150.0 mg/kg/injection, schedule: Q01DX009 (ip), vehicle: alkali diluted with saline 103 % of control | dose: 150.0 mg/kg/injection, schedule: Q01DX009 (ip), vehicle: saline 102 % of control | [1] 101 % of control | dose: 200.0 mg/kg/injection, schedule: Q04DX003 (ip), vehicle: alkali diluted with saline 108 % of control | [2] 100 % of control | dose: 400.0 mg/kg/injection, schedule: Q04DX003 (ip), vehicle: alkali diluted with saline 97 % of control

CCCCN(C)N=Nc1ccccc1C(N)=O
inactive: dose: 89.0 mg/kg/injection, schedule: Q01DX009 (ip), vehicle: Klucel (hydroxypropylcellulose) (HPC) 108 % of control | dose: 89.0 mg/kg/injection, schedule: Q01DX009 (ip), vehicle: other 108 % of control | dose: 133.0 mg/kg/injection, schedule: Q01DX009 (ip), vehicle: Klucel (hydroxypropylcellulose) (HPC) 122 % of control | dose: 133.0 mg/kg/injection, schedule: Q01DX009 (ip), vehicle: other 122 % of control | dose: 177.0 mg/kg/injection, schedule: Q01DX001 (ip), vehicle: other 97 % of control | [3] 115 % of control | dose: 200.0 mg/kg/injection, schedule: Q01DX009 (ip), vehicle: other 108 % of control | dose: 266.0 mg/kg/injection, schedule: Q01DX001 (ip), vehicle: other 113 % of control | dose: 300.0 mg/kg/injection, schedule: Q01DX009 (ip), vehicle: Klucel (hydroxypropylcellulose) (HPC) 111 % of control and 124 % of control | dose: 300.0 mg/kg/injection, schedule: Q01DX009 (ip), vehicle: other 95 % of control and 90 % of control | dose: 400.0 mg/kg/injection, schedule: Q01DX001 (ip), vehicle: other 101 % of control

O=C1c2ccccc2C(=O)N1SN1C(=O)c2ccccc2C1=O
inactive: dose: 25.0 mg/kg/injection, schedule: Q01DX009 (ip), vehicle: Klucel (hydroxypropylcellulose) (HPC) 92 % of control | dose: 50.0 mg/kg/injection, schedule: Q01DX009 (ip), vehicle: Klucel (hydroxypropylcellulose) (HPC) 93 % of control | dose: 100.0 mg/kg/injection, schedule: Q01DX009 (ip), vehicle: Klucel (hydroxypropylcellulose) (HPC) 97 % of control

COC(=O)C(C(=O)Oc1ccc([N+](=O)[O-])cc1)c1ccccc1 (stereo not given)
inactive: dose: 100.0 mg/kg/injection, schedule: Q01DX001 (ip), vehicle: Klucel (hydroxypropylcellulose) (HPC) 97 % of control | [4] 101 % of control | dose: 200.0 mg/kg/injection, schedule: Q01DX001 (ip), vehicle: Klucel (hydroxypropylcellulose) (HPC) 97 % of control | [3] 102 % of control | [5] 103 % of control | dose: 400.0 mg/kg/injection, schedule: Q01DX001 (ip), vehicle: Klucel (hydroxypropylcellulose) (HPC) 100 % of control | dose: 400.0 mg/kg/injection, schedule: Q01DX009 (ip), vehicle: Klucel (hydroxypropylcellulose) (HPC) 109 % of control | [6] 101 % of control

NC(=O)CCC(N)C(=O)O (stereo not given)
inactive: dose: 6.25 mg/kg/injection, schedule: Q01DX009 (ip), vehicle: saline 108 % of control | dose: 100.0 mg/kg/injection, schedule: Q01DX009 (ip), vehicle: saline with Tween-80 97 % of control | dose: 100.0 mg/kg/injection, schedule: Q04DX003 (ip), vehicle: saline with Tween-80 94 % of control | [1] 90 % of control | dose: 200.0 mg/kg/injection, schedule: Q04DX003 (ip), vehicle: saline with Tween-80 93 % of control | [2] 93 % of control | dose: 400.0 mg/kg/injection, schedule: Q04DX003 (ip), vehicle: saline with Tween-80 96 % of control

Cc1ncc(CO)c(CO)c1O
inactive: dose: 100.0 mg/kg/injection, schedule: Q04DX003 (ip), vehicle: saline 101 % of control | dose: 200.0 mg/kg/injection, schedule: Q04DX003 (ip), vehicle: saline 100 % of control | dose: 400.0 mg/kg/injection, schedule: Q04DX003 (ip), vehicle: saline 96 % of control

O=C(COc1ccc(Cl)c(Cl)c1)NCc1ccc[n+](Cc2ccc(S(=O)(=O)F)cc2)c1
inactive: dose: 25.0 mg/kg/injection, schedule: Q04DX003 (ip), vehicle: Klucel (hydroxypropylcellulose) (HPC) 106 % of control | dose: 50.0 mg/kg/injection, schedule: Q04DX003 (ip), vehicle: Klucel (hydroxypropylcellulose) (HPC) 101 % of control | [4] 94 % of control and 101 % of control

CCOC(=O)c1cc(Cl)c(O)c(Cl)c1
inactive: dose: 25.0 mg/kg/injection, schedule: Q01DX009 (ip), vehicle: gum acacia 100 % of control | dose: 50.0 mg/kg/injection, schedule: Q01DX009 (ip), vehicle: gum acacia 98 % of control | dose: 100.0 mg/kg/injection, schedule: Q01DX009 (ip), vehicle: gum acacia 98 % of control and 100 % of control | [4] 93 % of control | [5] 103 % of control | [6] 95 % of control

CCNC(=O)NCc1ccc(Cl)c(Cl)c1
inactive: dose: 100.0 mg/kg/injection, schedule: Q04DX002 (ip), vehicle: Klucel (hydroxypropylcellulose) (HPC) 105 % of control | dose: 200.0 mg/kg/injection, schedule: Q04DX002 (ip), vehicle: Klucel (hydroxypropylcellulose) (HPC) 99 % of control
